Laboratory results as given in patent US20250311727A1, “SUBSTITUTED 2-AMINOAZINES AND SALTS THEREOF, AND USE THEREOF AS HERBICIDAL ACTIVE SUBSTANCES” (BAYER AKTIENGESELLSCHAFT, priority 2022, published 2025).

Experiments:
Assay type in all cases: in vivo
[1] = system: Amaranthus retroflexus; assay: Post-emergence herbicidal efficacy at 320 g/ha, AMARE; details: rated visually after about 3 weeks vs untreated controls, 100% = plants have died
Outline: (§1)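 Visual rating about 3 weeks after treatment, scored against untreated plants on a scale from 0% (no effect) to 100% (dead). Application was foliar, as aqueous WP or EC suspension or emulsion with 0.5% additive at 600 L/ha, on one-leaf-stage greenhouse plants 2–3 weeks old, grown in sandy loam.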

[2] = system: Abutilon theophrasti; assay: Post-emergence herbicidal efficacy at 320 g/ha, ABUTH; details: rated visually after about 3 weeks vs untreated controls, 100% = plants have died
Outline: as §1

[3] = system: Alopecurus myosuroides; assay: Post-emergence herbicidal efficacy at 320 g/ha, ALOMY; details: rated visually after about 3 weeks vs untreated controls, 100% = plants have died
Description: (§2) Unwanted plants/weeds: • ABUTH: Abutilon theophrasti • ALOMY: Alopecurus myosuroides • AMARE: Amaranthus retroflexus • DIGSA: Digitaria sanguinalis • ECHCG: Echinochloa crus-galli • KCHSC: Kochia scoparia • LOLRI: Lolium rigidum • MATIN: Matricaria inodora • POAAN: Poa annua • POLCO: Polygonum convolvulus • SETVI: Setaria viridis • STEME: Stellaria media • VERPE: Veronica persica • VIOTR: Viola tricolor A. Post-Emergence Herbicidal Efficacy at 320 g/ha
(§3) Seeds of mono- and dicotyledonous weed plants were placed in plastic pots in sandy loam soil (doubly sown with in each case one species of mono- or dicotyledonous weed plants per pot), covered with soil and cultivated in a greenhouse under controlled growth conditions. 2 to 3 weeks after sowing, the test plants were treated at the one-leaf stage. The compounds of the invention, formulated in the form of wettable powders (WP) or as emulsion concentrates (EC), were applied to the green parts of the plants as aqueous suspension or emulsion with addition of 0.5% additive at a water application rate equivalent to 600 litres per hectare. After the test plants had been kept in the greenhouse under optimum growth conditions for about 3 weeks, the activity of the preparations was rated visually in comparison to untreated controls.
(§4) For example, 100% activity=the plants have died, 0% activity=like control plants.
(§5) Tables A1 to A10 below show the effects of selected compounds of the general formula (I) according to Table 1 on various harmful plants and at an application rate corresponding to 320 g/ha, which were obtained by the trial procedure specified above.

[4] = system: Stellaria media; assay: Post-emergence herbicidal efficacy at 320 g/ha, STEME; details: rated visually after about 3 weeks vs untreated controls, 100% = plants have died
Outline: as §1

[5] = system: Poa annua; assay: Pre-emergence herbicide efficacy at 320 g/ha, POAAN; details: scored visually after about 3 weeks vs untreated controls, 100% = plants have died
Outline: (§6)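 Compound formulated as wettable powder or emulsion concentrate is applied onto covered, sown sandy loam soil with 0.5% additive. Plants grow under greenhouse conditions, and after roughly 3 weeks weed control is rated by eye as a percentage relative to untreated pots.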

[6] = system: Viola tricolor; assay: Post-emergence herbicidal efficacy at 80 g/ha, VIOTR; details: rated visually after about 3 weeks vs untreated controls, 100% = plants have died
Description: as §2
(§7) Seeds of monocotyledonous and dicotyledonous weeds and crop plants were placed in sandy loam in plastic or organic planting pots, covered with soil and cultivated in a greenhouse under controlled growth conditions. 2 to 3 weeks after sowing, the test plants were treated at the one-leaf stage. The compounds of the invention, formulated in the form of wettable powders (WP) or as emulsion concentrates (EC), were then sprayed onto the green parts of the plants as aqueous suspension or emulsion with addition of 0.5% additive at a water application rate of 600 l/ha (converted). After the test plants had been kept in the greenhouse under optimum growth conditions for about 3 weeks, the activity of the preparations was rated visually in comparison to untreated controls. For example, 100% activity=the plants have died, 0% activity=like control plants.
(§8) Tables B1 to B11 below show the effects of selected compounds of the general formula (I) according to Table 1 on various harmful plants and an application rate corresponding to 80 g/ha, which were obtained by the experimental procedure mentioned above.

[7] = system: Viola tricolor; assay: Pre-emergence herbicide efficacy at 80 g/ha, VIOTR
Description: as §2
(§9) Seeds of monocotyledonous and dicotyledonous weed plants and crop plants were placed in plastic or organic planting pots and covered with soil. The compounds of the invention, formulated in the form of wettable powders (WP) or as emulsion concentrates (EC), were then applied to the surface of the covering soil as aqueous suspension or emulsion with addition of 0.5% additive at a water application rate equivalent to 600 l/ha. After the treatment, the pots were placed in a greenhouse and kept under good growth conditions for the test plants. After about 3 weeks, the efficacy of the preparations was scored visually in comparison with untreated controls as percentages. For example, 100% activity=the plants have died, 0% activity=like control plants.
(§10) Tables D1 to D12 below show the effects of selected compounds of the general formula (I) according to Table 1 on various harmful plants and an application rate corresponding to 80 g/ha, which were obtained by the experimental procedure mentioned above.

[8] = system: Veronica persica; assay: Post-emergence herbicidal efficacy at 320 g/ha, VERPE; details: rated visually after about 3 weeks vs untreated controls, 100% = plants have died
Outline: as §1

[9] = system: Setaria viridis; assay: Post-emergence herbicidal efficacy at 80 g/ha, SETVI; details: rated visually after about 3 weeks vs untreated controls, 100% = plants have died
Description: as §2, §7, §8

[10] = system: Veronica persica; assay: Pre-emergence herbicide efficacy at 320 g/ha, VERPE; details: scored visually after about 3 weeks vs untreated controls, 100% = plants have died
Outline: as §6

[11] = system: Setaria viridis; assay: Pre-emergence herbicide efficacy at 80 g/ha, SETVI
Description: as §2, §9, §10

[12] = system: Amaranthus retroflexus; assay: Pre-emergence herbicide efficacy at 80 g/ha, AMARE; details: scored visually after about 3 weeks vs untreated controls, 100% = plants have died
Description: as §2, §9, §10

[13] = system: Echinochloa crus-galli; assay: Post-emergence herbicidal efficacy at 320 g/ha, ECHCG; details: rated visually after about 3 weeks vs untreated controls, 100% = plants have died
Outline: as §1

[14] = system: Amaranthus retroflexus; assay: Pre-emergence herbicide efficacy at 320 g/ha, AMARE; details: scored visually after about 3 weeks vs untreated controls, 100% = plants have died
Outline: as §6

[15] = system: Kochia scoparia; assay: Pre-emergence herbicide efficacy at 320 g/ha, KCHSC; details: scored visually after about 3 weeks vs untreated controls, 100% = plants have died
Outline: as §6

[16] = system: Alopecurus myosuroides; assay: Pre-emergence herbicide efficacy at 320 g/ha, ALOMY; details: scored visually after about 3 weeks vs untreated controls, 100% = plants have died
Description: as §2
(§11) Seeds of mono- and dicotyledonous weed plants were placed in plastic pots in sandy loam soil (doubly sown with one species each of mono- or dicotyledonous weed plants per pot) and covered with soil. The compounds of the invention, formulated in the form of wettable powders (WP) or as emulsion concentrates (EC), were then applied to the surface of the covering soil as aqueous suspension or emulsion with addition of 0.5% additive at a water application rate of 600 litres per hectare (converted). After the treatment, the pots were placed in a greenhouse and kept under good growth conditions for the test plants. After about 3 weeks, the efficacy of the preparations was scored visually in comparison with untreated controls as percentages.
as §4
(§12) Tables C1 to C12 below show the effects of selected compounds of the general formula (I) according to Table 1 on various harmful plants and at an application rate corresponding to 320 g/ha, which were obtained by the trial procedure specified above.

[17] = system: Digitaria sanguinalis; assay: Pre-emergence herbicide efficacy at 80 g/ha, DIGSA; details: scored visually after about 3 weeks vs untreated controls, 100% = plants have died
Description: as §2, §9, §10

[18] = system: Abutilon theophrasti; assay: Pre-emergence herbicide efficacy at 320 g/ha, ABUTH; details: scored visually after about 3 weeks vs untreated controls, 100% = plants have died
Description: as §2, §11, §4, §12

[19] = system: Abutilon theophrasti; assay: Post-emergence herbicidal efficacy at 80 g/ha, ABUTH; details: rated visually after about 3 weeks vs untreated controls, 100% = plants have died
Description: as §2, §7, §8

[20] = system: Kochia scoparia; assay: Post-emergence herbicidal efficacy at 80 g/ha, KCHSC; details: rated visually after about 3 weeks vs untreated controls, 100% = plants have died
Outline: (§13)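 Post-emergence greenhouse test: one-leaf weeds sprayed with formulated compound (0.5% additive, 600 l/ha), visually rated about 3 weeks later against untreated controls.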

[21] = system: Kochia scoparia; assay: Post-emergence herbicidal efficacy at 320 g/ha, KCHSC; details: rated visually after about 3 weeks vs untreated controls, 100% = plants have died
Outline: as §1

[22] = system: Stellaria media; assay: Pre-emergence herbicide efficacy at 320 g/ha, STEME; details: scored visually after about 3 weeks vs untreated controls, 100% = plants have died
Outline: as §6

[23] = system: Veronica persica; assay: Pre-emergence herbicide efficacy at 80 g/ha, VERPE
Description: as §2, §9, §10

[24] = system: Poa annua; assay: Post-emergence herbicidal efficacy at 320 g/ha, POAAN; details: rated visually after about 3 weeks vs untreated controls, 100% = plants have died
Description: as §2, §3, §4, §5

[25] = system: Amaranthus retroflexus; assay: Post-emergence herbicidal efficacy at 80 g/ha, AMARE; details: rated visually after about 3 weeks vs untreated controls, 100% = plants have died
Outline: as §13

[26] = system: Echinochloa crus-galli; assay: Pre-emergence herbicide efficacy at 320 g/ha, ECHCG; details: scored visually after about 3 weeks vs untreated controls, 100% = plants have died
Outline: as §6

[27] = system: Veronica persica; assay: Post-emergence herbicidal efficacy at 80 g/ha, VERPE; details: rated visually after about 3 weeks vs untreated controls, 100% = plants have died
Outline: as §13

[28] = system: Digitaria sanguinalis; assay: Post-emergence herbicidal efficacy at 320 g/ha, DIGSA; details: rated visually after about 3 weeks vs untreated controls, 100% = plants have died
Description: as §2, §3, §4, §5

[29] = system: Digitaria sanguinalis; assay: Pre-emergence herbicide efficacy at 320 g/ha, DIGSA; details: scored visually after about 3 weeks vs untreated controls, 100% = plants have died
Outline: as §6

[30] = system: Setaria viridis; assay: Pre-emergence herbicide efficacy at 320 g/ha, SETVI; details: scored visually after about 3 weeks vs untreated controls, 100% = plants have died
Outline: as §6

Fc1cccc(Nc2ncc(Cl)cn2)c1-c1cc(C(F)F)no1 [Example 1-33]
90%: Pre-emergence efficacy against VIOTR [7] | Pre-emergence efficacy at 80 g/ha against DIGSA in % [17] | Pre-emergence efficacy against VERPE [23]
100%: Post-emergence efficacy at 320 g/ha against AMARE in % [1] | Post-emergence efficacy at 320 g/ha against ABUTH in % [2] | Post-emergence efficacy at 320 g/ha against ALOMY in % [3] | Post-emergence efficacy at 320 g/ha against STEME in % [4] | Pre-emergence efficacy at 320 g/ha against POAAN in % [5] | Post-emergence efficacy at 80 g/ha against VIOTR in % [6] | Post-emergence efficacy at 320 g/ha against VERPE in % [8] | Post-emergence efficacy at 80 g/ha against SETVI in % [9] | Pre-emergence efficacy at 320 g/ha against VERPE in % [10] | Pre-emergence efficacy against SETVI [11] | Pre-emergence efficacy at 80 g/ha against AMARE in % [12] | Post-emergence efficacy at 320 g/ha against ECHCG in % [13] | Pre-emergence efficacy at 320 g/ha against AMARE in % [14] | Pre-emergence efficacy at 320 g/ha against KCHSC in % [15] | Pre-emergence efficacy at 320 g/ha against ALOMY in % [16] | Pre-emergence efficacy at 320 g/ha against ABUTH in % [18] | Post-emergence efficacy at 80 g/ha against KCHSC in % [20] | Post-emergence efficacy at 320 g/ha against KCHSC in % [21] | Pre-emergence efficacy at 320 g/ha against STEME in % [22] | Post-emergence efficacy at 320 g/ha against POAAN in % [24] | Post-emergence efficacy at 80 g/ha against AMARE in % [25] | Pre-emergence efficacy at 320 g/ha against ECHCG in % [26] | Post-emergence efficacy at 80 g/ha against VERPE in % [27] | Post-emergence efficacy at 320 g/ha against DIGSA in % [28] | Pre-emergence efficacy at 320 g/ha against DIGSA in % [29] | Pre-emergence efficacy at 320 g/ha against SETVI in % [30]
80%: Post-emergence efficacy at 80 g/ha against ABUTH in % [19]
